The target in one test is T1, TNKS2 (Homo sapiens, UniProt Q9H2K2).
T1 construct: GST-tagged Tnks-2 (873-1166 aa, prepared in-house); made in house
The test is described as follows: TNKS2 activity ELISA (autoparsylation assay). It is filed as biochemical. Here is the method:
(§1) Description of the TNKS1 and TNKS2 ELISA Assay
(§2) Biochemical Activity Testing of TNKS 1 and 2: Activity ELISA (Autoparsylation Assay)
(§3) For analysis of autoparsylation activity of TNKS 1 and 2 an activity ELISA iss performed: In the first step GST tagged TNKS is captured on a Glutathione coated plate. Then the activity assay with biotinylated NAD is performed in the absence/presence of the compounds. During the enzymatic reaction GST tagged TNKS transfers biotinylated ADP-ribose to itself from biotinylated NAD as co-substrate. For the detection streptavidin-HRP conjugate is added that binds to the biotinylated TNKS and is thereby captured to the plates. The amount of biotinylated resp. autoparsylated TNKS is detected with a luminescence substrate for HRP. The level of the luminescence signal correlats directly with the amount of autoparsylated TNKS and therefore with activity of TNKS.
(§4) The activity ELISA is performed in 384 well Glutathione coated microtiter plates (Express capture Glutathione coated plate, Biocat, Heidelberg, Germany). The plates are pre-equilibrated with PBS. […] The plates are washed 3 times with PBS-Tween-20. The wells are blocked by incubation at room temperature for 20 minutes with 50 μl blocking buffer (PBS, 0.05% Tween-20, 0.5% BSA). Afterwards the plates are washed 3 times with PBS-Tween-20. […] The reaction is stopped by 3 times washing with PBS-Tween-20. For the detection 50 μl of 20 ng/μl Streptavidin, HRP conjugate (MoBiTec, Göttingen, Germany) in PBS/0.05% Tween-20/0.01% BSA are added and the plates are incubated for 30 minutes at room temperature. After three times washing with PBS-Tween-20 50 μl of SuperSignal ELISA Femto Maximum sensitivity substrate solution (ThermoFisherScientific (Pierce), Bonn, Germany) are added. Following a 1 minute incubation at room temperature luminescence signals are measured with an Envision multimode reader (Perkin Elmer LAS Germany GmbH) at 700 nm. The full value used is the inhibitor-free reaction. […] The inhibitory values (IC50) are determined using either the program Symyx Assay Explorer® or Condosseo® from GeneData.

The target in another test is T2, TNKS1 (Homo sapiens, UniProt O95271).
T2 construct: GST-tagged Tnks-1 (1023-1327 aa, prepared in-house); made in house
T2 sequence (O95271 1023-1327): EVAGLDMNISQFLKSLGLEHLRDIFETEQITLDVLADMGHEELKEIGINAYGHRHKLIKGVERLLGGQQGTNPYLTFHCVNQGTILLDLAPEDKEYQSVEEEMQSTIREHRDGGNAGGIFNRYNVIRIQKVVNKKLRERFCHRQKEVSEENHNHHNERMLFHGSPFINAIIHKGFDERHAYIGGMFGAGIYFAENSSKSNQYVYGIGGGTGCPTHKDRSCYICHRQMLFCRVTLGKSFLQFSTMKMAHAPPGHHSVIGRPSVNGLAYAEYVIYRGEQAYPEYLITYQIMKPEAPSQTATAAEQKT
Kind of test: TNKS1 activity ELISA (autoparsylation assay). Type of test: biochemical. To be noted: GST-tagged Tnks-1 (1023-1327 aa). As to the method:
as §1, §2, §3, §4

For another test, the target named is T3, PARP-1 (Homo sapiens, UniProt P09874).
T3 construct: purchased Enzo Life Sciences GmbH, Lörrach, Germany
T3 sequence (P09874 whole entry): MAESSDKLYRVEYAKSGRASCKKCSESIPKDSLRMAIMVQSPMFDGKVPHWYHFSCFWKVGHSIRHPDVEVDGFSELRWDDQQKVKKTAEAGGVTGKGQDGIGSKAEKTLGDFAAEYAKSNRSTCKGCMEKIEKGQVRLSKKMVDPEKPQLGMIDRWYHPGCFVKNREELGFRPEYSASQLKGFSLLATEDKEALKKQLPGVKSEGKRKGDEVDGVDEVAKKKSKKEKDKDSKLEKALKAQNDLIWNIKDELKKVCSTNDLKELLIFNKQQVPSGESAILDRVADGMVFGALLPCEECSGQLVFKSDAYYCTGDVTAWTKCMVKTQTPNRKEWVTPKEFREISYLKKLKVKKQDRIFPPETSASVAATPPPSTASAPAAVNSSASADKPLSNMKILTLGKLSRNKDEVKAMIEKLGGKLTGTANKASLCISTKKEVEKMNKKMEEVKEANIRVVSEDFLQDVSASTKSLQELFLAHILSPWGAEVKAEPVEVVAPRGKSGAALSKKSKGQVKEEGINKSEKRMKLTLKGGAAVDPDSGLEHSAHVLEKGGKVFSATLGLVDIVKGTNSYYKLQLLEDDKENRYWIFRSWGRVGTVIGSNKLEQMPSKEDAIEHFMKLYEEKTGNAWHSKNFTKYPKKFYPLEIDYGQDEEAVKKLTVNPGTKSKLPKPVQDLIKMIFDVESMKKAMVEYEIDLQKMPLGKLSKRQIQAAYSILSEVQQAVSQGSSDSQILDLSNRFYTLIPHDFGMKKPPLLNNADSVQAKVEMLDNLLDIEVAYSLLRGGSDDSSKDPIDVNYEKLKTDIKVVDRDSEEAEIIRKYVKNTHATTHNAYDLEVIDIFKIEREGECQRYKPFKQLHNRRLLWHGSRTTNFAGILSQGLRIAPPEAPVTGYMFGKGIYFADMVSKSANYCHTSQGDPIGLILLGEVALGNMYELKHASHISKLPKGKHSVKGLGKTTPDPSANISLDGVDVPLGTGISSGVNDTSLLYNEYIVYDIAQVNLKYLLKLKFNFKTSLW
Kind of test: PARP-1 autoparsylation assay (HTRF). It is filed as biochemical. Conditions: His-tagged Parp-1, autoparsylation HTRF. An excerpt: Description of the PARP1 Assay
Biochemical Activity Testing of PARP-1: Autoparsylation Assay
The autoparsylation assay is run in two steps: the enzymatic reaction in which His-tagged Parp-1 transfers biotinylated ADP-ribose/ADP-ribose to itself from biotinylated NAD/NAD as co-substrate and the detection reaction where a time resolved FRET between cryptate labelled anti-His antibody bound to the His tag of the enzyme and Xlent® labelled-streptavidin bound the biotin-parsylation residue is analysed. The autoparsylation activity is detectable directly via the increase in HTRF signal.
The autoparsylation assay is performed as 384-well HTRF® (Cisbio, Codolet, France) assay format in Greiner low volume nb 384-well microtiter plates. […] The ratio of the emission signals is determined. The full value used is the inhibitor-free reaction. The pharmacological zero value used is Olaparib (LClabs, Woburn, US) in a final concentration of 1 μM. The inhibitory values (IC50) are determined using either the program Symyx Assay Explorer® or Condosseo® from GeneData.
In general terms: In TR-FRET formats the signal depends on donor and acceptor labels being close together.

A further test concerns Tankyrases. To be noted: read-out: EC50 [M] TNKS cellular assay; DLD1 cells, 24 hours, Axin2 increase.
Where [1] appears, read: GST-tagged Tnks-2 (873-1166 aa), read-out: IC50 [M] TNKS2 ELISA.

The text below walks through data of patent US9809598B2 (Merck Patent GmbH, priority 2014, dated 2017).

Structures can show the parent of a compound that is named as a salt. Where two headings read alike, the source gives them in different places. Some results are limits rather than exact numbers.

T1 sequence (Q9H2K2 873-1166): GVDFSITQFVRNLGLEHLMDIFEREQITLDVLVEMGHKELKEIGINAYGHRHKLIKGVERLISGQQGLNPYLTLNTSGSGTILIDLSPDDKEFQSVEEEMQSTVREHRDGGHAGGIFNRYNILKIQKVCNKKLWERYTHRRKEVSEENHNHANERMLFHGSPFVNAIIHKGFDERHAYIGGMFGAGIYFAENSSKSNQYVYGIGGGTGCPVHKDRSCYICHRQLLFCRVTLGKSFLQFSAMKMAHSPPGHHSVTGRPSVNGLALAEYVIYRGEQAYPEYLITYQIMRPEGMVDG

As usually defined, the IC50 is the concentration that inhibits the measured activity by half. As a reminder, the EC50 is the concentration at which the effect is half-maximal. For `COc1ccc(C(=O)C2CCN(C(=O)CCCc3cn4c(C)ccc4c(=O)[nH]3)CC2)cc1C` [Compound C3, 3-{4-[4-(4-Methoxy-3-methyl-benzoyl)-piperidin-1-yl]-4-oxo-butyl}-6-methyl-2H-pyrrolo[1,2-a]pyrazin-1-one], the IC50 at TNKS2 (setting [1]) came to 1.7e-10 M; at TNKS1, 0.14 nM; against PARP-1 it was 820 nM. For the same molecule, the EC50 with Tankyrases came to 2.9e-10 M.
For the molecule `N#Cc1ccc(OC2CCN(C(=O)CCCc3cn4cccc4c(=O)[nH]3)CC2)cc1` [Compound C5, 4-{1-[4-(1-Oxo-1,2-dihydro-pyrrolo[1,2-a]pyrazin-3-yl)-butyryl]-piperidin-4-yloxy}-benzonitrile], the results for the IC50 on TNKS2 (setting [1]), at TNKS1 and against PARP-1 were 8.8e-09 M, 0.13 nM and 4300 nM, respectively. Also, in the test with Tankyrases, the EC50 came to 1.2e-07 M.
As for `O=C(CCCc1cn2cccc2c(=O)[nH]1)N1CCC(c2nnc(-c3ccccc3)o2)CC1` [Compound C6, 3-{4-Oxo-4-[4-(5-phenyl-[1,3,4]oxadiazol-2-yl)-piperidin-1-yl]-butyl}-2H-pyrrolo[1,2-a]pyrazin-1-one], the IC50 stood at 1.3e-09 M at TNKS2 (setting [1]), 1.9 nM against TNKS1 and 3700 nM against PARP-1. For the same molecule, the EC50 in the test with Tankyrases was found to be 2.8e-08 M.
Consider `Cc1ccc2c(=O)[nH]c(CCCC(=O)N3CCC(Oc4ccc(C#N)cc4)CC3)cn12` [Compound C7, 4-{1-[4-(6-Methyl-1-oxo-1,2-dihydro-pyrrolo[1,2-a]pyrazin-3-yl)-butyryl]-piperidin-4-yloxy}-benzonitrile], for which the figures for the IC50 on TNKS2 (setting [1]), against TNKS1 and against PARP-1 were 2e-09 M, 2.6 nM and 1800 nM, respectively. In addition, in the test on Tankyrases, the EC50 stood at 4.7e-08 M.
Consider `COc1ccc(C(=O)C2CCN(C(=O)CCCc3cn4cc(C)cc4c(=O)[nH]3)CC2)cc1` [Compound C8, 3-{4-[4-(4-Methoxy-benzoyl)-piperidin-1-yl]-4-oxo-butyl}-7-methyl-2H-pyrrolo[1,2-a]pyrazin-1-one], for which the IC50 was 1.6e-10 M on TNKS2 (setting [1]), less than 0.1 nM on TNKS1 and 2900 nM at PARP-1. The EC50 in the test on Tankyrases stood at 2.8e-09 M.
For `COc1ccc(C(=O)C2CCN(C(=O)CCCc3cn4c(Cl)ccc4c(=O)[nH]3)CC2)cc1` [Compound C11, 6-Chloro-3-{4-[4-(4-methoxy-benzoyl)-piperidin-1-yl]-4-oxo-butyl}-2H-pyrrolo[1,2-a]pyrazin-1-one], the IC50 stood at 1.6e-10 M at TNKS2 (setting [1]), 0.14 nM on TNKS1 and 2700 nM at PARP-1. Also, in the test on Tankyrases, the EC50 worked out at 9e-10 M.
The matching figures for `COc1ccc(C(=O)C2CCN(C(=O)CCCc3cn4cccc4c(=O)[nH]3)CC2)cn1` [Compound C15, 3-{4-[4-(6-Methoxy-pyridine-3-carbonyl)-piperidin-1-yl]-4-oxo-butyl}-2H-pyrrolo[1,2-a]pyrazin-1-one]: 1.7e-10 M, 0.23 nM, 1700 nM and 1.5e-09 M.
With `Cn1cc(C(=O)C2CCN(C(=O)CCCc3cn4cccc4c(=O)[nH]3)CC2)cn1` [Compound C22, 3-{4-[4-(1-Methyl-1H-pyrazole-4-carbonyl)-piperidin-1-yl]-4-oxo-butyl}-2H-pyrrolo[1,2-a]pyrazin-1-one], the values for the IC50 on TNKS2 (setting [1]), on TNKS1 and against PARP-1 were 3e-10 M, 0.25 nM and 5200 nM, respectively. In addition, the EC50 in the test on Tankyrases turned out to be 4.5e-09 M.
Consider `COc1ccc(C(=O)C2CCN(C(=O)CCCc3cn4c(C)cnc4c(=O)[nH]3)CC2)cc1` [Compound C32, 6-{4-[4-(4-Methoxybenzoyl)-1-piperidyl]-4-oxo-butyl}-3-methyl-7H-imidazo[1,2-a]pyrazin-8-one], for which the results for the half-maximal inhibitory concentration (IC50) at TNKS2 (setting [1]), on TNKS1 and at PARP-1 were 1.4e-10 M, 0.12 nM and 17000 nM, respectively.
On to `COc1ccc(C(=O)C2CCN(C(=O)CCCc3cn4c(C)ncc4c(=O)[nH]3)CC2)cc1` [Compound C33, 6-{4-[4-(4-Methoxy-benzoyl)-piperidin-1-yl]-4-oxo-butyl}-3-methyl-7H-imidazo[1,5-a]pyrazin-8-one], for which the IC50 on TNKS2 (setting [1]) was found to be 1.2e-10 M; against TNKS1, 0.16 nM; at PARP-1 it was 5500 nM. Besides, in the test with Tankyrases, the EC50 is 1.5e-09 M.
For `COc1ccc(C(=O)C2CCN(C(=O)CCCc3nc4c(C)scc4c(=O)[nH]3)CC2)cc1` [Compound C34, 2-{4-[4-(4-Methoxy-benzoyl)-piperidin-1-yl]-4-oxo-butyl}-7-methyl-3H-thieno[3,4-d]pyrimidin-4-one], the results for the IC50 on TNKS2 (setting [1]), at TNKS1 and at PARP-1 were 3.3e-10 M, 0.54 nM and 1100 nM, respectively. The concentration for a half-maximal effect (EC50) with Tankyrases amounted to 4.8e-09 M.
Regarding `COc1ccc(C(=O)C2CCN(C(=O)CCCc3nc4c(C)csc4c(=O)[nH]3)CC2)cc1` [Compound C35, 2-{4-[4-(4-Methoxy-benzoyl)-piperidin-1-yl]-4-oxo-butyl}-7-methyl-3H-thieno-[3,2-d]pyrimidin-4-one], the IC50 worked out at 1.1e-10 M on TNKS2 (setting [1]), 0.19 nM on TNKS1 and 130 nM at PARP-1. The EC50 in the test with Tankyrases is 4.2e-10 M.
`COc1ccc(C(=O)C2CCN(C(=O)CCCc3nn4cccc4c(=O)[nH]3)CC2)cc1` [Compound C36, 2-{4-[4-(4-Methoxy-benzoyl)-piperidin-1-yl]-4-oxo-butyl}-3H-pyrrolo[2,1-f][1,2,4]triazin-4-one]: the IC50 on TNKS2 (setting [1]) is 2.8e-10 M; against TNKS1 it was 0.39 nM; on PARP-1, 3500 nM. The EC50 in the test on Tankyrases came out at 4.1e-09 M.
Take `O=C(CCCc1nc2c(c(=O)[nH]1)COCC2)N1CCC(c2nnc(-c3ccccc3)o2)CC1` [Compound C196, 2-{4-Oxo-4-[4-(5-phenyl-[1,3,4]oxadiazol-2-yl)-piperidin-1-yl]-butyl}-3,5,7,8-tetrahydro-pyrano[4,3-d]pyrimidin-4-one]: the results for the concentration for half-maximal inhibition (IC50) on TNKS2 and against PARP-1 were 5.7e-08 M and 6500 nM, respectively. Moreover, the half-maximal effective concentration (EC50) in the test on Tankyrases is 2e-06 M.
The matching figures for `Cc1ccc2c(=O)[nH]c(CCCC(=O)N3CCC(C(=O)c4cnn(C(C)C)c4)CC3)cn12` [Compound C211, 3-{4-[4-(1-Isopropyl-1H-pyrazole-4-carbonyl)-piperidin-1-yl]-4-oxo-butyl}-6-methyl-2H-pyrrolo[1,2-a]pyrazin-1-one]: 2.8e-10 M, 14000 nM and 1.4e-08 M.
With `CC(C)n1cc(C(=O)C2CCN(C(=O)CCCc3cn4c(F)ccc4c(=O)[nH]3)CC2)cn1` [Compound C212, 6-Fluoro-3-{4-[4-(1-isopropyl-1H-pyrazole-4-carbonyl)-piperidin-1-yl]-4-oxo-butyl}-2H-pyrrolo[1,2-a]pyrazin-1-one], the IC50 turned out to be 1.3e-09 M on TNKS2 (setting [1]), 0.39 nM at TNKS1 and 5600 nM at PARP-1.
As for `COc1ccc(C(=O)C2CCN(C(=O)CCCc3nc(C(C)C)cc(=O)[nH]3)CC2)cn1` [Compound C256, 4-Isopropyl-2-{4-[4-(6-methoxypyridine-3-carbonyl)-1-piperidyl]-4-oxo-butyl}-1H-pyrimidin-6-one trifluoroacetate], the results for the IC50 on TNKS2 (setting [1]) and at TNKS1 were 6.5e-08 M and 160 nM, respectively. In the test with Tankyrases, the EC50 amounted to 2.6e-06 M.
For the molecule `CC(C)c1cc(=O)[nH]c(CCCC(=O)N2CCC(C(=O)c3cnn(C)c3)CC2)n1` [Compound C257, 4-Isopropyl-2-{4-[4-(1-methylpyrazole-4-carbonyl)-1-piperidyl]-4-oxo-butyl}-1H-pyrimidin-6-one trifluoroacetate], the IC50 on TNKS2 (setting [1]) was 5.8e-08 M; at TNKS1 it was 110 nM. In the test with Tankyrases, the half-maximal effective concentration (EC50) was 9.3e-06 M.
